Source: PubChem BioAssay (NCI)
Where “and” joins values, the source holds several entries; their conditions need not be identical. Identical values can stand only once.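 Cells were grown in 96-well plates and exposed to each compound for 48 hours at five concentrations; endpoints were interpolated linearly between bracketing concentrations, or set to the highest concentration if not reached. GI50 is the concentration that inhibits growth by half. The concentration for full growth arrest is given as TGI.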

Tests used:
Experiment in all cases: growth of human tumour cells (NCI), 48 h
HT29 colon = test system: HT29 colon
A549 NSCLC = test system: A549 NSCLC
OVCAR-8 ovarian = test system: OVCAR-8 ovarian
NCI-H226 lung = test system: NCI-H226 lung
RXF 393 renal = test system: RXF 393 renal
DMS 273 small cell lung = test system: DMS 273 small cell lung
SF-295 CNS = test system: SF-295 CNS
SN12C renal = test system: SN12C renal
MDA-N = test system: MDA-N
MDA-MB-435 = test system: MDA-MB-435

Structure (SMILES)	TGI (HT29 colon)	TGI (A549 NSCLC)	TGI (OVCAR-8 ovarian)	TGI (NCI-H226 lung)	TGI (RXF 393 renal)	TGI (DMS 273 small cell lung) [µM]	TGI (SF-295 CNS)	TGI (SN12C renal)	GI50 (HT29 colon) [µM]	GI50 (MDA-N) [µM]	TGI (MDA-N)	GI50 (A549 NSCLC)	GI50 (OVCAR-8 ovarian)	GI50 (NCI-H226 lung) [µM]	GI50 (MDA-MB-435)	TGI (MDA-MB-435)	GI50 (SF-295 CNS)	GI50 (SN12C renal) [µM]	GI50 (RXF 393 renal)
CC(=O)Oc1cc2c(=O)oc3c(OC(C)=O)c(OC(C)=O)c(OC(C)=O)c4c(=O)oc(c1OC(C)=O)c2c34	> 100 µM	> 100 µM	> 100 µM	99 µM	32 µM	> 100	52.9 µM	61.1 µM	–	–	–	–	–	–	–	–	–	–	–
COc1ccc(C2c3cc4c(cc3OC(O)(CO)C2C(=O)O)OCO4)c(OC)c1OC (centres undefined) (tested in a mixture with another compound)	> 100 µM	> 100 µM	> 100 µM	–	> 100 µM	> 100	> 100 µM	> 100 µM	–	–	–	–	–	–	–	–	–	–	–
CCOC(=O)c1ccc(C(O)CC(=O)OC(C)(C)C)[nH]1 (centres undefined)	> 100 µM	> 100 µM	> 100 µM	> 100 µM	–	–	63.5 µM	62.4 µM	59	17.8	60.3 µM	32.1 µM	56.7 µM	94.1	24.1 µM	62.2 µM	29.7 µM	17.4	–
O=C(Nc1ccc(N=Nc2ccccc2)cc1)Sc1ccccc1C(=O)O	> 100 µM	> 100 µM	> 100 µM	> 100 µM	> 100 µM	> 100	> 100 µM	> 100 µM	–	–	–	–	–	–	–	–	–	–	–
Cc1ccc(C2=NN(C)COC2C(F)(F)F)cc1 (centres undefined)	> 100 µM	> 100 µM	> 100 µM	> 100 µM	> 100 µM	> 100	> 100 µM	> 100 µM	–	–	–	–	–	–	–	–	–	–	–
CC1CC(C)C(=O)C(C(=O)CC2CC(=O)NC2=O)C1 (centres undefined)	> 100 µM	> 100 µM	> 100 µM	> 100 µM	> 100 µM	> 100	> 100 µM	> 100 µM	–	–	–	–	–	–	–	–	–	–	–
CC(=O)NC(Cc1c[nH]c2ccccc12)C(=O)O (centres undefined)	> 100 µM	> 100 µM	> 100 µM	> 100 µM	> 100 µM	–	> 100 µM	> 100 µM	–	–	> 100 µM	–	–	–	–	> 100 µM	–	–	–
CN(C)c1ccc2[nH]c(O)c(C=Nc3ccc(S(N)(=O)=O)cc3)c2c1	> 25 µM	> 25 µM	> 25 µM	> 25 µM	> 25 µM	–	> 25 µM	> 25 µM	> 25	–	–	> 25 µM	> 25 µM	> 25	> 25 µM	> 25 µM	> 25 µM	> 25	> 25 µM
Cc1cc2c(cc1C)[n+](=O)c(C(=O)c1cccs1)c(C(F)(F)F)n2[O-]	50 µM	50 µM and 21.5 µM	50 µM and 6.61 µM	50 µM	50 µM and 29.3 µM	–	3.34 µM and 12.9 µM	6.59 µM	9.97	–	–	3.27 µM and 5.68 µM	1.67 µM and 2.02 µM	4.06	4.45 µM and 4.89 µM	16 µM and 21.4 µM	0.603 µM and 2.89 µM	1.31	19.7 µM and 9.21 µM
O=C1OC2(c3ccccc31)c1cc(I)c(O)c(I)c1Oc1c2cc(I)c(O)c1I	> 100 µM	> 100 µM	> 100 µM	> 100 µM	> 100 µM	–	> 100 µM	> 100 µM	–	–	–	–	–	–	–	> 100 µM	–	–	–
CCSc1nc(=S)[nH]c2[nH]ncc12	> 100 µM	> 100 µM	> 100 µM	> 100 µM	> 100 µM	–	> 100 µM	> 100 µM	> 100	–	–	> 100 µM	> 100 µM	70.6	63.1 µM	> 100 µM	> 100 µM	> 100	98.3 µM
Cc1cc(-c2cc(C)c(O)c(C(C)(C)C)c2)cc(C(C)(C)C)c1O	12.7 µM and 16.4 µM	21.4 µM and 21.3 µM	31.5 µM and 26.1 µM	22.6 µM and 35.9 µM	25.5 µM and 26.1 µM	–	23.1 µM and 23.2 µM	24.8 µM and 26.2 µM	–	–	21.2 µM and 27.9 µM	–	–	–	–	26.4 µM and 28 µM	–	–	–
O=C(Nc1cccc(-c2nc3ccccc3[nH]2)c1)c1cccc(NC(=O)c2ccco2)c1	3.4 µM	3.95 µM	5.14 µM	15.9 µM	3.55 µM	–	4.41 µM	4.88 µM	1.91	–	–	1.88 µM	2.18 µM	2.72	1.67 µM	3.04 µM	1.92 µM	2.07	1.51 µM
O=[N+]([O-])c1ccccc1/C=C/C=C1c2ccccc2-c2ccccc21	> 100 µM	> 100 µM	> 100 µM	> 100 µM	> 100 µM	–	> 100 µM	> 100 µM	> 100	–	–	> 100 µM	> 100 µM	> 100	12.4 µM	> 100 µM	> 100 µM	> 100	> 100 µM
O=C(CC1(O)C(=O)Nc2ccccc21)c1ccc(O)cc1O (centres undefined)	> 100 µM	> 100 µM	> 100 µM	> 100 µM	> 100 µM	> 100	> 100 µM	> 100 µM	–	–	–	–	–	–	–	–	–	–	–
O=C(CSc1nc2sc3c(c2c(=O)n1-c1ccccc1)CCCCC3)N/N=C/c1ccc(F)cc1	7.04 µM	10.8 µM	5.19 µM	4.84 µM	7.18 µM	–	14.7 µM	6.9 µM	2.4	–	–	2.48 µM	1.58 µM	2.09	10.3 µM	> 100 µM	3.8 µM	1.99	2.39 µM
CCC[C@H](Nc1nc(-c2ccc(NC(=O)NCC)c(OC)c2)ncc1C)c1cccnc1	16.9 µM	> 36.2 µM	14.6 µM	25.7 µM	20 µM	–	0.0678 µM	20.5 µM	0.0361	–	–	0.0378 µM	0.0369 µM	0.0531	0.0219 µM	0.0533 µM	0.0253 µM	0.0486	0.0415 µM
C/C=C/CP(=O)(c1ccccc1)c1ccccc1	> 100 µM	> 100 µM	> 100 µM	> 100 µM	> 100 µM	> 100	> 100 µM	> 100 µM	–	–	–	–	–	–	–	–	–	–	–
